These results are taken from patent US20100234231A1, “YIELD ENHANCING AGENT FOR HARVESTING PART OF CROP” (priority 2009, published 2010).

Holding throughout (type): in vivo
For assay [1], the system named is sunflower (variety: Hybrid Sunflower). The experiment in a line: Effect of enhancing yield of sunflower seeds (field test, treatment after flowering). The settings on record: ALA hydrochloride 0.2 g/10a foliage x2, uniconazole P 0.3 g/10a, 7 days after flowering; for Number of filled seeds / Weight of filled seeds: empty seeds excluded. How it is done: A test field (red soil) was divided into 0.7 m^2 per compartment, and sunflower (variety: Hybrid Sunflower) was planted (6/9). A synthetic fertilizer was applied as a basal fertilizer such that N-P-K=5.0-5.0-5.0 kg/10 a (6/9). Four stocks were planted per test zone, and in the middle of growth, thinning was performed to make the test zone uniform so that there would be two stocks per test zone. Seven days after flowering, a Sumiseven P liquid preparation (containing 0.025% of uniconazole P) as an gibberellin biosynthesis inhibitor was used for treatment such that the amount of treatment of uniconazole P would be 0.3 […]) (8/20). Furthermore, a foliage treatment with 5-aminolevulic acid hydrochloride was performed at 0.2 […]), two times in total at the date of uniconazole P treatment (8/20) and 2 weeks after the uniconazole P treatment (9/3). As additional fertilization, a synthetic fertilizer was applied such that N-P-K=3.0-3.0-3.0 kg/10 a (7/8). After harvesting (9/16), the number and weight of seeds of each plant body were measured. This time, empty seeds without kernels were excluded. The test zone was provided as 6 test zones under each condition.

For a further assay, the system named is barley. Description: Effect of enhancing yield of barley grains (pot test, treatment around ear emergence). The protocol: A certain amount of kuroboku soil was placed in a 15-L Polybucket (1/17500×10 a), a liquid fertilizer Hyponica was applied as a basal fertilizer such that N-P-K=5.0-2.8-8.5 kg/10 a, and barley was sowed (11/3). Five stocks of seedlings were planted per bucket, and in the middle of growth, thinning was performed to make the test zone uniform so that there would be 3 stocks per bucket. Five days before ear emergence (4/15), prohexadione calcium salt was used as an gibberellin biosynthesis inhibitor to treat at 7.0, 3.5 […]) (4/10). Furthermore, a treatment with 5-aminolevulic acid hydrochloride was performed at 0.15 […]) under the conditions of performing a foliage treatment each time at the respective times of before (4/3), simultaneously with (4/10) and after (5/8) the treatment with prohexadione calcium salt. […] Four buckets were used per test zone.

Assay [2] deals with rice (variety: Koshihikari). The experiment in a line: Effect of enhancing yield of rice (pot test, treatment after ear emergence). The settings on record: for Number of ears per stock / Number of rice grains per ear / Weight of thousand grains / Ripening rate: ALA hydrochloride 0.1 g/10 a foliage x3, prohexadione calcium salt 0.4 g/10 a, 3 days after ear emergence; for Ripening rate: number of rice grains having specific gravity of 1.06 or more/number of total rice grains x100, in %; for Yield of rice per stock: product of ears per stock, grains per ear, ripening rate and thousand-grain weight, ALA hydrochloride 0.1 g/10 a, prohexadione calcium salt 0.4 g/10 a. The protocol: Seeds of rice (variety: Koshihikari) were sterilized with 70% ethanol, and rice seeds heavier than a specific gravity of 1.13 were screened by brine washing. Water absorption for one night at 30° C. and germination for one night were carried out, and then the seeds were sowed in a seedling box (4/11). A certain amount of kuroboku soil was placed in a 15-L Polybucket (1/17500×10 a), a synthetic fertilizer was mixed therein as a basal fertilizer such that N-P-K=5-5-5 kg/10 a, and water was drawn in to a water depth of 3 cm. Grown seedlings were planted at 3 stocks per bucket (5/15). […] Furthermore, 5-aminolevulic acid (ALA) hydrochloride was used for a foliage treatment for three times (8/14, 8/30, 9/10) at 0.1 […]). Four buckets were used for one test zone, and the buckets were placed randomly so as not to be affected by the place.

Another assay has as its system Turnip (variety: Honami). Description: Comparative Example: combined treatment during seedling growth, turnip yield (field test). The settings on record: ALA hydrochloride 0.2 g/10a; prohexadione calcium salt 20 g/10a; 7 days before initiation of enlargement (seedling growth). How it is done:
Turnip (variety: […] At this time, a synthetic fertilizer was applied as a basal fertilizer such that N-P-K=5-5-5 kg/10 a. Four stocks were planted per test zone, and 4 test zones were set up randomly for one condition so as not to be affected by the place. […] After harvesting (11/12), the weights of the aerial part and the terrestrial part of the plant body were measured.

The subject of assay [3] is radish (variety: Red Chime). The experiment in a line: Effect of enhancing yield of radish hypocotyl (pot test). The settings on record: ALA hydrochloride 0.1 g/10a foliage 6 days after prohexadione; prohexadione calcium salt 15 g/10a, 10 days after initiation of hypocotyl enlargement. The protocol: A certain amount of kuroboku soil was placed in a No. 6 pot (1/75000×10 a), and radish (variety: Red Chime) was planted (5/4). A liquid fertilizer Hyponica was applied as a basal fertilizer such that N-P-K=5.0-2.8-8.5 kg/10 a (5/8). Five stocks were planted per pot, and in the middle of growth, thinning was performed to make the test zone uniform so that there would be 3 stocks per pot. Ten days after the initiation of hypocotyl enlargement, prohexadione calcium salt was used as an gibberellin biosynthesis inhibitor to treat at 15 […]) (5/27). Furthermore, a treatment with 5-aminolevulic acid hydrochloride was performed at 0.1 […]) under the conditions of performing a foliage treatment (6/2) six days after the treatment with prohexadione calcium salt. […] Seven pots were used per test zone.

Each structure is given as a SMILES string.

In the case of `CC(C)(C)[C@H](O)/C(=C\c1ccc(Cl)cc1)n1cncn1` [Uniconazole P, (E)-(S)-1-(4-chlorophenyl)-4,4-dimethyl-2-(1H-1,2,4-triazol-1-yl)pent-1-en-3-ol], in assay [1], the “Live weight of plant body” value came to 1.96 kg/stock, the “Number of filled seeds” value came to 1377 seeds/stock and the “Weight of filled seeds” value was 126.3 g/stock.

With `Cl.NCC(=O)CCC(=O)O` [ALA hydrochloride, 5-aminolevulic acid hydrochloride], the “Weight of grains per stock” value in the assay on barley (ALA hydrochloride 0.15 g.a.i/10 a at the time 7 days before prohexadione calcium salt treatment (4/3), prohexadione calcium salt none) came to 6.59 g. For the same compound, the “Weight of grains per stock” value in the assay on barley (ALA hydrochloride 0.15 g.a.i/10 a at the time 28 days after prohexadione calcium salt treatment (5/8), prohexadione calcium salt none) was determined as 6.45 g. Further, the “Weight of grains per stock” value in the assay on barley (ALA hydrochloride 0.15 g.a.i/10 a at the time simultaneous with prohexadione calcium salt treatment (4/10), prohexadione calcium salt none) is listed as 6.83 g. In assay [1], the “Live weight of plant body” value was 1.68 kg/stock, the “Number of filled seeds” value stood at 1348 seeds/stock and the “Weight of filled seeds” value worked out at 120.5 g/stock. Moreover, in assay [2], the “Number of ears per stock” value stood at 20.2, the “Number of rice grains per ear” value turned out to be 80.12, the “Weight of thousand grains” value was determined as 21.9 g and the Ripening rate stood at 88.71. In assay [2], the “Yield of rice per stock” value was found to be 31.4 g. Moreover, in the assay on Turnip (variety: Honami), the “Weight of aerial part” value was 0.368 kg/stock and the “Weight of terrestrial part” value was 0.725 kg/stock. Also, in assay [3], the “Fresh weight of hypocotyl” value is recorded as 12.2 g.

For `CCC(=O)C1=C([O-])CC(C(=O)[O-])CC1=O.[Ca+2]` (stereo not drawn) [Prohexadione calcium salt, calcium 3-oxido-5-oxo-4-propionyl-3-cyclohexene carboxylate], the “Weight of grains per stock” value in the assay on barley (ALA hydrochloride none, prohexadione calcium salt 3.5 g.a.i/10 a, 5 days before ear emergence) worked out at 6.23 g. For the same compound, the “Weight of grains per stock” value in the assay on barley (ALA hydrochloride none, prohexadione calcium salt 7 g.a.i/10 a, 5 days before ear emergence) is given as 6.60 g. Further, in assay [2], the “Number of ears per stock” value turned out to be 20.2, the “Number of rice grains per ear” value is 80.35, the “Weight of thousand grains” value was found to be 22.22 g and the Ripening rate was 86.09. The “Yield of rice per stock” value in assay [2] amounted to 31.0 g. Further, in the assay with Turnip (variety: Honami), the “Weight of aerial part” value is listed as 0.349 kg/stock and the “Weight of terrestrial part” value turned out to be 0.641 kg/stock. Further, the “Fresh weight of hypocotyl” value in assay [3] turned out to be 10.3 g.
